The target in one assay is cdk9-55 (Homo sapiens, UniProt P50750). To be noted: Shore et al. 2003; Liu and Herman 2005; cited from earlier work.
A further assay has as its system C2C12 cells. The experiment in a line: C2C12 myoblast differentiation in the presence of kinase inhibitor DRB. To be noted: C2C12 induced to differentiate. It counts as cell-based, mouse. The method, then: C2C12 cells were grown in DMEM supplemented with 20% FBS (GM) or with 2% HS (DM).
Immunoprecipitations were performed with anti-MyoD antibody (Santa Cruz, Calif.) followed by the addition of protein A-sepharose. Beads were extensively washed and loading buffer without β-mercaptoethanol was added at 4° C. to work in non-denaturing conditions. Samples were resolved in PAA-Gels and transferred to a Hybond-ECL nitrocellulose (Amersham, IL). The blots were blocked with TBST containing 5% non-fat dry milk. Antibodies specific for cdk9, myogenin, MHC, RNAPolII, P-Serine2-CTD, Desmin and tubulin were used as described in Simone et al., 2002; Giacinti et al., 2006. Anti-rabbit and anti-mouse peroxidase conjugated and ECL detection system (Amersham, IL) were used for detection.
Since cdk9-55 activity, as well as cdk9-42 activity (Shore et al., Gene 307, 175-182, 2003; Liu and Herman, J. Cell. Physiol. 203, 251-260, 2005), could be inhibited by pharmacological blockade, C2C12 cells were induced to differentiate with the kinase specific inhibitor DRB.

SMILES strings stand for the structures.

cdk9-55, sequence (P50750 1-489 isoform P50750-2): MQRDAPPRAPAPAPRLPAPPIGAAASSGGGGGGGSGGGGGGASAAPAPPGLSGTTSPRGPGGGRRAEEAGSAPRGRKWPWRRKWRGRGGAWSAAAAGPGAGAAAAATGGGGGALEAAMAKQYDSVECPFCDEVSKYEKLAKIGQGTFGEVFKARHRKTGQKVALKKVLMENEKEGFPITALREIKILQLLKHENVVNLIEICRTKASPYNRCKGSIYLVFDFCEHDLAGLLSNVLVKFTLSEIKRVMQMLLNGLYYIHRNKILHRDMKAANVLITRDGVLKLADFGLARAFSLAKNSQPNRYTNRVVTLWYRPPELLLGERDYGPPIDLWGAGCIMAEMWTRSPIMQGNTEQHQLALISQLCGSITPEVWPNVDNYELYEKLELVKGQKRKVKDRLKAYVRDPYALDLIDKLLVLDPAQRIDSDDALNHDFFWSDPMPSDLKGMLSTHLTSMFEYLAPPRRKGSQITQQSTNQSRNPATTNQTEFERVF
cdk9-55, sequence (O60563 whole entry partner): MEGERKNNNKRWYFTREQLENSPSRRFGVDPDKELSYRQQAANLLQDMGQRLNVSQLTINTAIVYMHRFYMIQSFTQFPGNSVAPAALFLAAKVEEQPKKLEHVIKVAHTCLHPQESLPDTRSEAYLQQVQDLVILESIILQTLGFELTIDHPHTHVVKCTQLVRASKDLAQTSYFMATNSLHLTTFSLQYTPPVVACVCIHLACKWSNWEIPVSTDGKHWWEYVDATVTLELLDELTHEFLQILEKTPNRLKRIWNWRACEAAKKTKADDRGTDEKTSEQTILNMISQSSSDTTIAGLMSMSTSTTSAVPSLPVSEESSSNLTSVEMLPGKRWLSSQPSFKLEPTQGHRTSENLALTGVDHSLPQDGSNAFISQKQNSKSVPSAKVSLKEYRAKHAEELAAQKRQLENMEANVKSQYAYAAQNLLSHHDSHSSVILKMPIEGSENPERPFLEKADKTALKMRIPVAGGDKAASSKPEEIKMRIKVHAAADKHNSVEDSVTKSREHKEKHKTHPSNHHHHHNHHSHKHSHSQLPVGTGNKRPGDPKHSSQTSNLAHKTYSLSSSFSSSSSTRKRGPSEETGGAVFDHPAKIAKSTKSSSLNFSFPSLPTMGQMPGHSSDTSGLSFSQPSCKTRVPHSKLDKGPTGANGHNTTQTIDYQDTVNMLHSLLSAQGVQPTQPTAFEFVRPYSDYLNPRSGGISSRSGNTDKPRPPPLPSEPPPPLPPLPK

Turning to `OC[C@H]1O[C@@H](n2cnc3cc(Cl)c(Cl)cc32)[C@H](O)[C@@H]1O` [DRB, 5,6-dichloro-1-β-d-ribofuranosylbenzimidazole], the cdk9-55 kinase activity result at cdk9-55 is recorded as “specifically inhibited”. In the assay with C2C12 cells (DRB 100 μM), the multinucleated myotubes entry is reported as “absence of multinucleated myotubes”. The terminal differentiation result with C2C12 cells (DRB 100 μM (FIG. 1D, 1E)) is “failed to undergo terminal differentiation”. The MHC levels entry in the assay on C2C12 cells (DRB 100 μM, immunoblot) is reported as “low MHC levels”.

The values above are taken from patent US20090285791A1, “Regenerating and enhancing development of muscle tissue” (Sbarro Health Research Organization, Inc., priority 2008, published 2009).
